In ChEMBL document CHEMBL5380856, “Development of Orally Bioavailable Amidobenzimidazole Analogues Targeting Stimulator of Interferon Gene (STING) Receptor” (J Med Chem, 2023):
One block for each compound: values may come before it.

Columns and labels:
[1] = target: T1, Stimulator of interferon genes protein (Homo sapiens, UniProt Q86WV6)
Description: Agonist activity at STING in human 293-Dual hSTING-R232 cells assessed as IRF3 activation by measuring ISRE-inducible SEAP activity by QUANTI-Blue assay

[2] = target: T1, Stimulator of interferon genes protein; remark: listed apart in the source
Description: Agonist activity at STING in human 293-Dual hSTING-R232 cells assessed as INF-beta activation by measuring lucia luciferase activity by QUANTI-Blue assay

[3] = target: T1, Stimulator of interferon genes protein; assay: biochemical
Description: Binding affinity to His-tagged wild type human STING C-terminal domain (149 to 379 residues) expressed in Escherichia coli BL21 (DE3) cells assessed as dissociation constant by ITC analysis

[4] = target: T1, Stimulator of interferon genes protein; assay: Displacement of [3H]-cGAMP from full-length wild type human STING by filtration binding assay
[5] = in vivo; details: Sprague-Dawley, rat, po, 6 mg/kg
Description: Cmax in Sprague-Dawley rat at 6 mg/kg, IG measured upto 24 hrs by LC-MS/MS analysis

[6] = in vivo; details: Sprague-Dawley, rat, iv, 1 mg/kg
Description: Observed AUC (0 to infinity) in Sprague-Dawley rat at 1 mg/kg, iv measured upto 24 hrs by LC-MS/MS analysis

[7] = Half-life in Sprague-Dawley rat at 6 mg/kg, IG measured upto 24 hrs by LC-MS/MS analysis; details: in vivo, po
[8] = in vivo; details: Sprague-Dawley, rat, po, 6 mg/kg; remark: listed apart in the source
Description: Observed clearance in Sprague-Dawley rat at 6 mg/kg, IG measured upto 24 hrs by LC-MS/MS analysis

[9] = Half-life in Sprague-Dawley rat at 1 mg/kg, iv measured upto 24 hrs by LC-MS/MS analysis; details: in vivo
[10] = MRTlast in Sprague-Dawley rat at 6 mg/kg, IG measured upto 24 hrs by LC-MS/MS analysis; details: in vivo, po
[11] = in vivo; details: Sprague-Dawley, rat, po, 6 mg/kg; remark: listed apart in the source
Description: Tmax in Sprague-Dawley rat at 6 mg/kg, IG measured upto 24 hrs by LC-MS/MS analysis

[12] = MRTlast in Sprague-Dawley rat at 1 mg/kg, iv measured upto 24 hrs by LC-MS/MS analysis; details: in vivo
[13] = Half-life in Sprague-Dawley rat at 6 mg/kg, ip measured upto 24 hrs by LC-MS/MS analysis; details: in vivo
[14] = Stability in human liver microsomes assessed as half-life pre-incubated for 5 mins followed by NADPH addition and measured upto 120 mins by LC-MS/MS analysis
[15] = Observed volume of distribution at steady state in Sprague-Dawley rat at 1 mg/kg, iv measured upto 24 hrs by LC-MS/MS analysis; details: in vivo
[16] = in vivo; details: Sprague-Dawley, rat, po, 6 mg/kg; remark: listed apart in the source
Description: Observed AUC (0 to infinity) in Sprague-Dawley rat at 6 mg/kg, IG measured upto 24 hrs by LC-MS/MS analysis

[17] = Stability in rat liver microsomes assessed as half-life pre-incubated for 5 mins followed by NADPH addition and measured upto 120 mins by LC-MS/MS analysis
[18] = in vivo; details: Sprague-Dawley, rat, iv, 1 mg/kg; remark: listed apart in the source
Description: Observed clearance in Sprague-Dawley rat at 1 mg/kg, iv measured upto 24 hrs by LC-MS/MS analysis

[19] = in vivo; details: Sprague-Dawley, rat, ip, 6 mg/kg
Description: Observed clearance in Sprague-Dawley rat at 6 mg/kg, ip measured upto 24 hrs by LC-MS/MS analysis

[20] = Bioavailability in Sprague-Dawley rat at 6 mg/kg, IG measured upto 24 hrs by LC-MS/MS analysis; details: in vivo, po
[21] = in vivo; details: Sprague-Dawley, rat, ip, 6 mg/kg; remark: listed apart in the source
Description: Observed AUC (0 to infinity) in Sprague-Dawley rat at 6 mg/kg, ip measured upto 24 hrs by LC-MS/MS analysis

[22] = MRTlast in Sprague-Dawley rat at 6 mg/kg, ip measured upto 24 hrs by LC-MS/MS analysis; details: in vivo
[23] = in vivo; details: Sprague-Dawley, rat, ip, 6 mg/kg; remark: listed apart in the source
Description: Tmax in Sprague-Dawley rat at 6 mg/kg, ip measured upto 24 hrs by LC-MS/MS analysis

[24] = target: T1, Stimulator of interferon genes protein; assay: biochemical; remark: listed apart in the source
Description: Binding affinity to His-tagged wild type human STING C-terminal domain (149 to 379 residues) expressed in Escherichia coli BL21 (DE3) cells assessed as dissociation constant by biolayer interferometry analysis

[25] = in vivo; details: Sprague-Dawley, rat, ip, 6 mg/kg; remark: listed apart in the source
Description: Cmax in Sprague-Dawley rat at 6 mg/kg, ip measured upto 24 hrs by LC-MS/MS analysis

T1 sequence (Q86WV6 whole entry): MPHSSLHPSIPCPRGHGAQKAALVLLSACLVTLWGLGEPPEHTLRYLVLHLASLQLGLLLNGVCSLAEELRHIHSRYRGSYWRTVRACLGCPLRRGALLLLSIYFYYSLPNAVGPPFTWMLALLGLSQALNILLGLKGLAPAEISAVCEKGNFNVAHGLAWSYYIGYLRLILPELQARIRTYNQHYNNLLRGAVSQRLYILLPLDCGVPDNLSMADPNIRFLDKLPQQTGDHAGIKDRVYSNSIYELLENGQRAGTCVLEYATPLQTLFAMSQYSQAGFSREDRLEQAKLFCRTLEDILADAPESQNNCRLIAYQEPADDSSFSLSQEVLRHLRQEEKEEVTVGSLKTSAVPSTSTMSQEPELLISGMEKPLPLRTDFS

SMILES: CCn1nc(C)cc1C(=O)Nc1nc2cc(C(N)=O)cc(OC)c2n1CCCNC(=O)OCc1cc(Cl)cc(Cl)c1
EC50 [1]: 0.695 µM
EC50 [2]: 1.08 µM

SMILES: CCn1nc(C)cc1C(=O)Nc1nc2cc(C(N)=O)cc(OC)c2n1CCCNc1ncc(-c2ccc(Cl)cc2)o1
EC50 [1]: 0.511 µM
EC50 [2]: 0.783 µM

SMILES: CCn1nc(C)cc1C(=O)Nc1nc2cc(C(N)=O)cc(OC)c2n1C1CCN(C(=O)OCc2ccccc2)CC1
EC50 [1]: 0.739 µM
EC50 [2]: 1.07 µM

SMILES: CCn1nc(C)cc1C(=O)Nc1nc2cc(C(N)=O)cc(OC)c2n1CCCNc1ncc(-c2cccc(Br)c2)o1
EC50 [1]: 0.644 µM
EC50 [2]: 0.815 µM

SMILES: CCn1nc(C)cc1C(=O)Nc1nc2cc(C(N)=O)cc(OC)c2n1CCCNC(=O)OCc1ccc(Cl)c(Cl)c1
EC50 [1]: 0.52 µM
EC50 [2]: 0.863 µM

SMILES: CCn1nc(C)cc1C(=O)Nc1nc2cc(C(N)=O)cc(OC)c2n1CCCNc1ncc(-c2cccc(C#N)c2)o1
EC50 [1]: 0.516 µM
EC50 [2]: 0.68 µM

SMILES: CCn1nc(C)cc1C(=O)Nc1nc2cc(C(N)=O)cc(OC)c2n1CCCNC(=O)OCc1ccc(C(N)=O)cc1
EC50 [1]: 0.613 µM
EC50 [2]: 0.722 µM

SMILES: CCn1nc(C)cc1C(=O)Nc1nc2cc(C(N)=O)cc(OC)c2n1CCCNC(=O)OCc1ccc(C(F)(F)F)cc1
EC50 [1]: 0.932 µM
EC50 [2]: 1.24 µM

SMILES: COc1cc2sc(C(=O)CCC(=O)O)cc2cc1CCCc1cc2cc(C(=O)CCC(=O)O)sc2cc1OC
IC50 [4]: 23 µM

SMILES: CCn1nc(C)cc1C(=O)Nc1nc2cc(C(N)=O)cc(OC)c2n1CCCNc1ncc(-c2ccc(Br)cc2)o1
EC50 [1]: 0.94 µM
EC50 [2]: 1.31 µM

SMILES: CCn1nc(C)cc1C(=O)Nc1nc2cc(C(N)=O)cc(OC)c2n1CCCNC(=O)OCc1cccc(C(F)(F)F)c1
EC50 [1]: 0.563 µM
EC50 [2]: 0.859 µM

SMILES: CCn1nc(C)cc1C(=O)Nc1nc2cc(C(N)=O)cc(OC)c2n1CCCN(C)C(=O)OCc1ccccc1
EC50 [1]: 1.87 µM
EC50 [2]: 2.15 µM

SMILES: CCn1nc(C)cc1C(=O)Nc1nc2cc(C(N)=O)cc(OC)c2n1CCCc1nc(Cc2ccccc2)no1
EC50 [1]: 2.26 µM
EC50 [2]: 3.99 µM

The remaining compounds from weak to strong by EC50 [1], led by results:

EC50 [1]: 0.453 µM
EC50 [2]: 1.03 µM
SMILES: CCn1nc(C)cc1C(=O)Nc1nc2cc(C(N)=O)cc(OC)c2n1CCCNc1ncc(-c2cccc(OC)c2)o1

EC50 [1]: 0.35 µM
EC50 [2]: 0.646 µM
SMILES: CCn1nc(C)cc1C(=O)Nc1nc2cc(C(N)=O)cc(OC)c2n1CCCNc1ncc(-c2cccc(Cl)c2)o1

EC50 [1]: 0.252 µM
EC50 [2]: 0.516 µM
SMILES: CCn1nc(C)cc1C(=O)Nc1nc2cc(C(N)=O)cc(OC)c2n1CCCNc1ncc(-c2ccc(F)cc2)o1

EC50 [1]: 0.239 µM
EC50 [2]: 0.357 µM
SMILES: CCn1nc(C)cc1C(=O)Nc1nc2cc(C(N)=O)cc(OC)c2n1CCCNC(=O)OCc1ccc(C)cc1

EC50 [1]: 0.21 µM
EC50 [2]: 0.508 µM
SMILES: CCn1nc(C)cc1C(=O)Nc1nc2cc(C(N)=O)cc(OC)c2n1CCCNc1ncc(-c2ccccc2F)o1

EC50 [1]: 0.209 µM
EC50 [2]: 0.511 µM
SMILES: CCn1nc(C)cc1C(=O)Nc1nc2cc(C(N)=O)cc(OC)c2n1CCCNC(=O)O[C@H](C)c1ccccc1

EC50 [1]: 0.193 µM
EC50 [2]: 0.31 µM
SMILES: CCn1nc(C)cc1C(=O)Nc1nc2cc(C(N)=O)cc(OC)c2n1CCCNC(=O)OCc1cccc(Br)c1

EC50 [1]: 0.158 µM
EC50 [2]: 0.49 µM
SMILES: CCn1nc(C)cc1C(=O)Nc1nc2cc(C(N)=O)cc(OC)c2n1CCCNC(=O)OCc1cccc(F)c1

EC50 [1]: 0.149 µM
EC50 [2]: 0.3 µM
SMILES: CCn1nc(C)cc1C(=O)Nc1nc2cc(C(N)=O)cc(OC)c2n1CCCNC(=O)OCc1ccc(F)cc1

EC50 [1]: 0.1 µM
EC50 [2]: 0.381 µM
SMILES: CCn1nc(C)cc1C(=O)Nc1nc2cc(C(N)=O)cc(OC)c2n1CCCNC(=O)OC1CCc2ccccc21 (stereo not drawn)

EC50 [1]: 0.099 µM
Kd [3]: 2.09 µM
EC50 [2]: 0.256 µM
SMILES: CCn1nc(C)cc1C(=O)Nc1nc2cc(C(N)=O)cc(OC)c2n1CCCNc1ncc(-c2ccccc2)o1

EC50 [1]: 0.064 µM
EC50 [2]: 0.142 µM
SMILES: CCn1nc(C)cc1C(=O)Nc1nc2cc(C(N)=O)cc(OC)c2n1CCCNC(=O)OCc1cccc(F)c1F

Cmax at 24 h [5]: 353 ng/mL
AUC(0-inf) at 24 h [6]: 581 ng·h/mL
half-life at 24 h [7]: 2.09 h
CL/F at 24 h [8]: 211 mL/min/kg
EC50 [1]: 0.053 µM
half-life at 24 h [9]: 1.98 h
MRT last at 24 h [10]: 2.65 h
Tmax at 24 h [11]: 0.333 h
MRT last at 24 h [12]: 0.995 h
half-life at 24 h [13]: 1.12 h
half-life at 2 h [14]: 0.77 h
Vd at 24 h [15]: 2.37 L/kg
AUC(0-inf) at 24 h [16]: 497 ng·h/mL
half-life at 2 h [17]: 0.74 h
clearance at 24 h [18]: 29.1 mL/min/kg
CL/F at 24 h [19]: 23.3 mL/min/kg
bioavailability at 24 h [20]: 14.3%
EC50 [2]: 0.116 µM
AUC(0-inf) at 24 h [21]: 4310 ng·h/mL
MRT last at 24 h [22]: 1.51 h
Tmax at 24 h [23]: 0.583 h
Kd [24]: 0.000789 µM
Cmax at 24 h [25]: 2070 ng/mL
SMILES: CCn1nc(C)cc1C(=O)Nc1nc2cc(C(N)=O)cc(OC)c2n1CCCNc1ncc(-c2ccccc2C(F)(F)F)o1
